The values below come from PubChem BioAssay (NCI).

Each structure is given as a SMILES string. “And” between values parts separate entries of the source, which are not always exact repeats. Identical values can stand only once.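 96-well plates; 48 h exposure; 5 concentrations. Endpoints by linear interpolation between flanking doses. Not reached: highest tested concentration assigned. At the GI50, growth is halved. TGI denotes the concentration required for complete inhibition of growth.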

Test in all cases: inhibition of tumour cell growth, NCI panel, 48 h
The test system of test [1] is BT-549 breast.
Test [2] has as its system NCI/ADR-RES ovarian.
Test [3] relates to PC-3 prostate.
The test system of test [4] is T-47D breast.

Regarding `Nc1nc(Nc2cccc(F)c2)nc2ccccc12`, the GI50 in test [1] was 30.2 µM; in test [2], 26.7 µM; in test [3] it was 31 µM; in test [4], 15.6 µM. Besides, the TGI in test [1] was > 100 µM; in test [2], 94.3 µM; in test [3], > 100 µM; in test [4], 63 µM.
In the case of `CCc1c2c(nc3cccc(N)c13)-c1cc3c(c(=O)n1C2)COC(=O)[C@]3(O)CC`, the results for the GI50 in test [1], in test [2] and in test [3] were 0.00656 µM, 0.0164 µM and 0.349 µM, respectively. For the same molecule, the TGI was 0.0218 µM in test [1], > 100 µM in test [2], > 100 µM in test [3] and > 100 µM in test [4].
On to `CCCCC[C@H]1C/C=C2/C(=O)C(Cl)=C[C@@H]2C/C=C\CCCC(=O)O[C@@H](CCCCC)C/C=C2/C(=O)C(Cl)=C[C@@H]2C/C=C\CCCC(=O)O1`, for which the GI50 in test [1] was 0.33 µM; in test [2], 2.44 µM; in test [3], 0.368 µM; in test [4] it was 0.39 µM. Also, the TGI is 0.836 µM in test [1], 9.46 µM in test [2], 1.08 µM in test [3] and 1.18 µM in test [4].
Turning to `CC1=CC(=O)C(C(C)=Nc2ccccc2Cl)C(=O)O1` (stereo not drawn), the GI50 in test [2], in test [3] and in test [4] was > 100 µM throughout. Moreover, the TGI in test [2], in test [3] and in test [4] was > 100 µM each time.
Regarding `S=c1ssc(Sc2ccccn2)c1Cl`, the GI50 in test [2] was 13.9 µM; in test [3], 11.9 µM; in test [4], 17 µM. In addition, the TGI in test [2] was determined as 26.8 µM; in test [3] it was 24.2 µM; in test [4] it was 34.6 µM.
`COc1cc(/C=C(/c2ccccc2)[N+](=O)[O-])c(OC)c2c1OCO2`: the GI50 in test [1] is 1.66 µM; in test [2], 2.43 µM; in test [3], 1.71 µM; in test [4], 1.21 µM. Besides, the TGI in test [1] was found to be 3.23 µM; in test [2] it was 7.37 µM; in test [3], 3.59 µM; in test [4] it was 5.57 µM.
Consider `C/C1=C\CC[C@@](C)(O)[C@@H]2CC3[C@@H](OC(=O)C34CC4)[C@@H](O2)[C@H](C)CCC1` (stereo partly drawn), for which the GI50 in test [2] is 17 µM; in test [3] it was 20.1 µM; in test [4], 47.2 µM. For the same molecule, the TGI in test [2] is 34 µM; in test [3], 44.6 µM; in test [4] it was > 100 µM.
In the case of `CC[CH2][Pb]([CH2]CC)([CH2]CC)[NH]S(=O)(=O)c1ccc(C)cc1`, the GI50 is 0.0209 µM in test [1], 0.217 µM in test [2] and 0.0701 µM in test [3]. In addition, the values for the TGI in test [1], in test [2] and in test [3] were 0.0499 µM, 0.641 µM and 0.196 µM, respectively.
In the case of `Cc1cn2c(/C=N/N/C(N)=N\N)c(-c3ccc(Cl)c([N+](=O)[O-])c3)nc2s1`, the GI50 in test [1] was 1.12 µM; in test [2], 15.7 µM; in test [3] it was 9.95 µM; in test [4], 0.878 µM. Further, the TGI amounted to 2.36 µM in test [1], 46.8 µM in test [2], 24.8 µM in test [3] and 2.48 µM in test [4].
For the molecule `Cn1cc(-c2ccc(CNc3cc(-c4cnc5cc(OCCCN6CCCC6)ccn45)ncn3)cc2)cn1`, the GI50 in test [1] is 12.6 µM; in test [2] it was 5.11 µM; in test [3] it was 3.63 µM; in test [4], 18.7 µM. The TGI in test [1] is 27.2 µM; in test [2] it was > 100 µM; in test [3], > 100 µM; in test [4] it was 43.1 µM.
With `CN(C)c1ccc(C(N)=O)cn1`, the TGI in test [1], in test [2] and in test [3] was > 100 µM in each case.
In the case of `O=C(Nc1ccc2c(c1)oc(=O)c1ccccc12)C(Cl)Cl`, the TGI in test [1], in test [2], in test [3] and in test [4] was > 100 µM in each case.
Turning to `COc1ccc2c(c1)nc(N)c1c3cccnc3cn21`, the GI50 was 0.447 µM in test [1], 0.0382 µM in test [2], 0.0412 µM in test [3] and 6.75 µM in test [4]. For the same molecule, the TGI in test [1] stood at 28.9 µM; in test [2] it was 50.2 µM; in test [3] it was 27.7 µM; in test [4] it was 33.4 µM.
For the molecule `O=c1oc2ccc(Cl)cc2c(=O)n1-c1ccc(I)cc1F`, the GI50 is 0.168 µM in test [1], 0.3 µM in test [2], 0.924 µM in test [3] and 0.152 µM in test [4]. Moreover, the TGI in test [1] stood at 1 µM; in test [2], 2.87 µM; in test [3], 6.92 µM; in test [4], 1.11 µM.
`C/C(=N\NC(N)=O)C(CN(C)C)C(c1ccccc1)c1c(O)c2ccccc2oc1=O` (stereo not drawn): the TGI in test [1], in test [2], in test [3] and in test [4] was > 100 µM throughout.
Regarding `CCCCCc1c(C)[nH]c(/C=C2\N=C(c3ccc[nH]3)C=C2Oc2ccc(Cl)cc2)c1C`, the GI50 in test [1] is 0.222 µM and 0.352 µM; in test [2], 0.377 µM and 0.387 µM; in test [3], 0.115 µM and 0.0236 µM; in test [4], 0.0709 µM and 0.0329 µM. Moreover, the TGI was 19.7 µM in test [1]; 18.8 µM in test [2]; 7.22 µM in test [3]; 2.06 µM and 6.01 µM in test [4].
As for `Nc1nc(OCc2ccccc2)nc2[nH]ncc12`, the GI50 in test [1] was 23.2 µM; in test [2], 17.6 µM; in test [3] it was 16.8 µM; in test [4] it was 4.12 µM. Moreover, the TGI was 54.8 µM in test [1], 42.4 µM in test [2], 39.9 µM in test [3] and 9.69 µM in test [4].
`Clc1ccc2nc(Oc3ccccc3)cnc2c1`: the GI50 in test [1], in test [2], in test [3] and in test [4] was > 100 µM each time. Moreover, the TGI in test [1], in test [2], in test [3] and in test [4] was > 100 µM throughout.
For the molecule `Cc1cc(N2CCCC2)nc(N(CCCNc2ccnc3cc(Cl)ccc23)Cc2ccc3c(c2)OCO3)n1`, the results for the GI50 in test [2], in test [3] and in test [4] were 1.43 µM, 1.47 µM and 1.42 µM, respectively. The TGI in test [2] came to 3.92 µM; in test [3] it was 12 µM; in test [4], 4.66 µM.
